Results reported in US12667586B2, “Treatments for ocular surface disorders” (Glaukos Corporation, priority 2023, dated 2026).

Tests used:
[1] = system: persistent epithelial defect (PED) of the cornea; experiment: Phase 2 randomized, double-masked, vehicle-controlled study in subjects with persistent epithelial defects (PED) from ocular chemical and/or thermal injuries; type: in vivo, human; details: for subjects who achieved corneal epithelial recovery (re-epithelialized by Day 28 and remained so for at least 28 days): topical under bandage contact lens and to fornices, Day 1, Day 2, Day 14 if not re-epithelialized, n=12, full data set
Source text: A Phase 2, Randomized, Prospective, Double-Masked, Vehicle-Controlled Study to Assess the Efficacy and Safety of Lufepirsen® (Lufepirsen) Applied Topically in Subjects with Persistent Epithelial Defects (PED) Resulting from Ocular Chemical and/or Thermal Injuries.
This Example describes the use of an exemplary connexin modulator (lufepirsen) in a randomized, prospective, vehicle-controlled, double-masked, human clinical trial to treat non-healing ocular surface defects. Lufepirsen is a connexin 43 antisense oligonucleotide according to SEQ ID NO:1. The vehicle comparator in the trial was Pluronic F-127.
Study Subjects: A total of 35 subjects were enrolled in this clinical trial. All eligible subjects presented with a non-infected, persistent epithelial defect (PED) of the cornea as a result of a chemical and/or thermal ocular injury, that was refractory to current standard of care for at least 14 days. Of the 35 subjects, 24 subjects received topical ocular dose administrations of […] and 11 subjects received Vehicle. […]
• Corneal epithelial recovery, defined as a cornea that re-epithelializes by Day 28 of treatment and remains re-epithelialized for at least 28 days after initial re-epithelialization was first recorded, as assessed by the Investigator. Secondary Endpoints: • The time to epithelialization defined as the time from randomization to the time of initial re-epithelialization. • Improvement of visual acuity from baseline over the course of the study period. • Number of […] treatment doses required for recovery of the corneal epithelium. Exploratory Endpoints: • Change from baseline in PED area defined as the largest diameter times the largest one perpendicular to it, within the confines of the epithelial defect. • Corneal re-epithelialization, defined as a cornea that has re-epithelialized by Day 28 of treatment. • Change from baseline in ocular symptoms. • Primary, secondary, and exploratory endpoints were also assessed (as applicable) for the open-label section of the study. • Descriptive comparison of intrasubject corneal re-epithelization to fellow eye in subjects with bilateral injuries Safety: • Incidence of Treatment Emergent Adverse Events.
Treatment Dosing: The study comprised of a 28-day Treatment Period, followed by a Post-treatment Follow-up Period of at least 28 days to evaluate both safety and re-epithelization status (durability), both of which were double-masked (i.e., double-blinded). Once determined to be eligible, subjects were randomized to receive either […] 0.06% or […] 0.006% or Vehicle in a 1:1:1 ratio respectively. Investigational product was applied under a bandage contact lens (BCL) and to the fornices of the study eye at the following time points during the Treatment Period: • Day 1 • Day 2 • Day 14 (if the cornea has not re-epithelialized)
The eye was then covered with a double eye pad and taped shut for approximately 8 hours.
Three treatment arms were evaluated in the study. Randomization was in a 1:1:1 ratio: • GROUP A—[…] 0.06% • GROUP B—[…] 0.006% • GROUP C—Vehicle
There was a single application of investigational product on Day 1 and Day 2. A potential additional application of investigational product was scheduled at Day 14 if re-epithelialization has not occurred.
The first investigational product application occurred following randomization on Day 1 of the Treatment Period, with the second application administered on Day 2. […]

[2] = biological target: gap junctions (Homo sapiens); details: at 17 μM; cited from earlier work
[3] = biological target: Cx43 hemichannels (Homo sapiens, UniProt P17302); details: cited from earlier work
[4] = system: gap junctions; details: in some circumstances; cited from earlier work
[5] = system: ATP release in glioma cells; details: read-out: IC50 (half maximal inhibitory concentration) for the inhibition of ATP release; cited from earlier work

gap junctions (Homo sapiens), sequence (P08034 whole entry): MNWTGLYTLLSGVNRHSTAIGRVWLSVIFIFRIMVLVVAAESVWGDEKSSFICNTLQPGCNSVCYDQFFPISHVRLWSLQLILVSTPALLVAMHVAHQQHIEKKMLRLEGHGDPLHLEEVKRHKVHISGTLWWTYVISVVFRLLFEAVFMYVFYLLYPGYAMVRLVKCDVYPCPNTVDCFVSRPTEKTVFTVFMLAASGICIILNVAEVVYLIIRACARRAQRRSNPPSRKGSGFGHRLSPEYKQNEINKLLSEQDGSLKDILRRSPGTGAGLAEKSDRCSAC
Cx43 hemichannels, sequence (P17302 2-382 limits assumed): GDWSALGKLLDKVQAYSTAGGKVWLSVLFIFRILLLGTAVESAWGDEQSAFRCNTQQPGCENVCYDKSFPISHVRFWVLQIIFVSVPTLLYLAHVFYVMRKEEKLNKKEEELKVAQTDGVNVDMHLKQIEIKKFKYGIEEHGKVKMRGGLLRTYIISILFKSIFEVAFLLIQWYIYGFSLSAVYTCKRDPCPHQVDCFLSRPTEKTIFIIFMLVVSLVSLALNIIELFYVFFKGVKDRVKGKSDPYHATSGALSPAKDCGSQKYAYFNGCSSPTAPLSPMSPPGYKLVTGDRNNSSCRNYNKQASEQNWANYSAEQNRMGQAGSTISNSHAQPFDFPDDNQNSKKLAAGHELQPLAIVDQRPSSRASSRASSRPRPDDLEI

Substance: 5′-GTAATTGCGGCAAGAAGAATTGTTTCTGTC-3′ (antisense GTAATTGCGGCAAGAAGAATTGTTTCTGTC; listed as DNA, chemistry not given here)
- subjects who achieved corneal epithelial recovery (re-epithelialized by Day 28 and remained so for at least 28 days) ([1]; LUFEPIRSEN 0.006%): 66.7%
- subjects who achieved corneal epithelial recovery (re-epithelialized by Day 28 and remained so for at least 28 days) ([1]; LUFEPIRSEN 0.06%): 66.7%
- tolerability of treatment (TEAEs) ([1]; TEAEs across all 3 treatment groups mild to moderate, unlikely/unrelated to study drug, a SAE not related to study drug): well tolerated
- times more likely to heal than the vehicle group ([1]; both LUFEPIRSEN doses pooled (n=24) vs VEH (n=11)): 2.44 times
- comparative improvement in corneal epithelial recovery over the VEH group ([1]; both LUFEPIRSEN doses pooled (n=24) vs VEH (n=11), Fisher's exact test p=0.065): 39.4%

Substance: GHGDPLHLEEVKC [^32Gap24, peptide that mimics a 13 amino acid long stretch of the L2 region of Cx32]
- effect on gap junctions [2]: without affecting gap junctions

Substance: VDCFLSRPTEKT [Peptide5]
- concentration at which Cx43 hemichannels are inhibited [3]: 5 to 10 µM
- concentration at which incubation also leads to inhibition of gap junctions [4]: ≥ 100 µM

Substance: YGRKKRRQRRRKQIEIKKFK [TAT-^43Gap19]
- IC50 [5]: 7 µM
